We go through two compounds from publication PMC9517990 (Communications Biology, 2022).

A word on the IC50: it is the concentration at which inhibition is half-maximal. In general, EC50 refers to the concentration at which the effect is half-maximal.

Assay [1] concerns the target neuraminidase of A/South Korea/90207/2020 WT virus (NA-H275, PA-I38) (Influenza A virus (A(H1N1)pdm09), UniProt A0A0X9QTS2). It counts as biochemical.
Assay [2] relates to A/South Korea/90207/2020 WT virus (NA-H275, PA-I38). Description: microbe, parasite or virus in culture. It counts as cell-based, influenza A(H1N1)pdm09 virus. Conditions: Influenza A virus, MDCK, 24 h, read-out: EC50 nM ± SD (column headed IC50; footnote: EC50).

The compound `CCC(CC)[C@H](NC(C)=O)[C@@H]1[C@H](O)[C@@H](C(=O)O)C[C@H]1N=C(N)N` [Peramivir, peramivir] returned an IC50 in assay [1] of 0.16 nM.
Take `O=C1c2c(O)c(=O)ccn2N([C@@H]2c3ccccc3SCc3c2ccc(F)c3F)[C@@H]2COCCN12` [Baloxavir, Baloxavir acid]: the EC50 in assay [2] is 1 ± 0.2 nM.
